# According to the supplement of paper PMC5579334:
# Tests used:
# [1] = tested on: HSC2; assay: relative IC50 (inflection point of fitted dose-response curve, CellTox-Green cytotoxicity, 72 h; top asymptote may be below 50%); higher = less potent
# Procedure, shortened: (§1)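 For 72 h at 37 °C, MPNST cell lines and primary human Schwann cells were exposed in 384-well plates to five 10-fold compound dilutions. CellTox-Green, added before seeding at a final 1:1000 dilution, gave fluorescence from DNA released by disrupted cells. Signals were scaled to vehicle and positive-control wells, cultures failing plate quality control were left out, and four-parameter logistic fits were applied. Relative IC50 and drug sensitivity score were derived from the fits, with IC50 censored at the top concentration.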
# [2] = tested on: HSC1; assay: as above
# Procedure, shortened: as §1
# [3] = tested on: ST8814; assay: as above
# Procedure, shortened: as §1
# [4] = tested on: S1507-2; assay: as above
# Procedure, shortened: as §1
# [5] = tested on: HS-PSS; assay: as above
# Procedure, shortened: as §1
# [6] = tested on: S462; assay: relative IC50 (inflection point of fitted dose-response curve, CellTiter-Glo viability, 72 h; top asymptote may be below 50% inhibition); higher = less potent
# Procedure, shortened: (§2)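 MPNST cell lines and primary human Schwann cells were seeded at 750–1000 cells per well into 384-well plates preprinted with each compound at five concentrations in 10-fold steps, then incubated 72 h at 37 °C, 5% CO2. CellTiter-Glo ATP luminescence gave viability, scaled between vehicle and positive-control wells, with duplicates averaged where present. Curves were fitted with a four-parameter logistic model. Percent inhibition refers to the top concentration, while drug sensitivity score and relative IC50, censored at the top concentration, come from these fits.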
# [7] = tested on: HSC2; assay: as above
# Procedure, shortened: as §2
# [8] = tested on: HSC1; assay: as above
# Procedure, shortened: as §2
# [9] = tested on: STS26T; assay: as above
# Procedure, shortened: as §2
# [10] = tested on: YST-1; assay: as above
# Procedure, shortened: as §2
# [11] = tested on: STS26T; assay: relative IC50 (inflection point of fitted dose-response curve, CellTox-Green cytotoxicity, 72 h; top asymptote may be below 50%); higher = less potent
# Procedure, shortened: as §1
# [12] = tested on: HS-Sch-2; assay: relative IC50 (inflection point of fitted dose-response curve, CellTiter-Glo viability, 72 h; top asymptote may be below 50% inhibition); higher = less potent
# Procedure, shortened: as §2
# [13] = tested on: HS-PSS; assay: as above
# Procedure, shortened: as §2
# [14] = tested on: ST8814; assay: as above
# Procedure, shortened: as §2
SMILES,relative IC50 [1] [µM],relative IC50 [2] [µM],relative IC50 [3] [µM],relative IC50 [4] [µM],relative IC50 [5] [µM],relative IC50 [6] [µM],relative IC50 [7] [µM],relative IC50 [8] [µM],relative IC50 [9] [µM],relative IC50 [10] [µM],relative IC50 [11] [µM],relative IC50 [12] [µM],relative IC50 [13] [µM],relative IC50 [14] [µM]
O=C(c1ccc(C(=O)N2CCC(N3CCCC3)CC2)c(Nc2ccccc2)c1)N1CCC(N2CCCC2)CC1 [UNC1215],> 30,> 30,> 30,> 30,> 30,> 30,> 30,> 30,> 30,> 30,–,–,–,–
C[C@]12C=CC(=O)C=C1CC[C@@H]1[C@@H]2[C@@H](O)C[C@@]2(C)[C@H]1CC[C@]2(O)C(=O)CO [Prednisolone],> 10,> 10,> 10,> 10,> 10,> 10,> 10,> 10,> 10,–,> 10,> 10,> 10,–
O=c1[nH]c(=O)n([C@H]2C[C@H](O)[C@@H](CO)O2)cc1F [Floxuridine],–,3.23,0.729,> 10,> 10,0.0534,0.127,0.752,0.0379,0.101,0.253,0.173,1.48,0.123
CCCCC/C=C/C=C1/C(=O)C=C[C@@H]1C/C=C\CCCC(=O)O [15D-PGJ2],> 0.8,> 0.8,> 0.8,> 0.8,> 3,> 0.8,> 0.8,> 0.8,> 0.8,> 3,> 0.8,–,> 3,> 0.8
C=CC[C@@H]1/C=C(\C)C[C@H](C)C[C@H](OC)[C@H]2O[C@@](O)(C(=O)C(=O)N3CCCC[C@H]3C(=O)O[C@H](/C(C)=C/[C@@H]3CC[C@@H](O)[C@H](OC)C3)[C@H](C)[C@@H](O)CC1=O)[C@H](C)C[C@@H]2OC [Tacrolimus],> 10,> 10,> 10,> 10,> 10,> 10,> 10,–,> 10,> 10,> 10,> 10,> 10,–
CCS(=O)(=O)c1cccc(-c2cc(C(=O)NC3CCN(C)CC3)c(C)c3[nH]c4ncc(C)cc4c23)c1 [TAK-901],0.183,–,0.134,> 1,> 1,0.122,0.0725,0.111,0.112,0.0633,0.0623,0.327,0.15,0.267
Cn1nnc2c(C(N)=O)ncn2c1=O [Temozolomide],> 10,> 10,> 10,> 10,> 100,> 10,> 10,> 10,> 10,–,> 10,–,–,–
Cn1cnc2c(F)c(Nc3ccc(Br)cc3F)c(C(=O)NOCCO)cc21 [MEK-162],> 1,> 1,> 1,> 1,–,0.124,> 1,–,–,–,> 1,–,–,–
O=C1CCC(N2C(=O)c3ccccc3C2=O)C(=O)N1 (stereo unspecified) [Thalidomide],> 10,> 10,> 10,> 10,> 10,> 10,> 10,> 10,> 10,> 10,–,–,> 10,–
C=C1C[C@@H]2[C@H](CC[C@]3(C)C(=O)CC[C@@H]23)[C@@]2(C)C=CC(=O)C=C12 [Exemestane],> 10,> 10,> 10,> 10,> 10,–,> 10,> 10,> 10,> 10,> 10,–,1.76,> 10
CC(C)(C)c1nc(-c2cccc(NS(=O)(=O)c3c(F)cccc3F)c2F)c(-c2ccnc(N)n2)s1 [Dabrafenib],> 2.5,> 2.5,> 2.5,> 2.5,> 2.5,0.668,0.0633,0.22,0.0728,–,> 2.5,–,1,0.968
CN[C@@H](C)C(=O)N[C@H]1CN(C(=O)CC(C)C)CC[C@H]2CC[C@@H](C(=O)NC(c3ccccc3)c3ccccc3)N2C1=O [AT-406],> 10,> 10,> 10,0.0583,> 10,> 10,> 10,> 10,0.0972,> 10,0.0199,–,–,> 10
COc1cc2c(N3CCN(C(=O)Nc4ccc(OC(C)C)cc4)CC3)ncnc2cc1OCCCN1CCCCC1 [Tandutinib],> 1,> 1,> 1,> 1,> 1,> 1,> 1,> 1,> 1,> 1,> 1,> 1,–,> 1
N[C@@H](Cc1ccc(N(CCCl)CCCl)cc1)C(=O)O [Melphalan aq],> 12.5,> 12.5,> 12.5,> 12.5,–,> 12.5,> 12.5,–,> 12.5,–,> 12.5,–,–,> 12.5
CCn1c(C(=O)N(C2CC2)C2CC2)cc2c3c(ncn3C)c(Nc3cc(C)n(C)n3)nc21,> 10,> 10,> 10,> 10,> 10,> 10,> 10,> 10,> 10,1.59,> 10,–,> 10,> 10
CN(Cc1cnc2nc(N)nc(N)c2n1)c1ccc(C(=O)N[C@@H](CCC(=O)O)C(=O)O)cc1 [Methotrexate],> 5,> 5,–,> 5,> 5,0.0276,–,> 5,0.0149,0.0609,0.314,0.0892,> 5,0.195
Sc1ncnc2nc[nH]c12 [Mercaptopurine],> 10,> 10,> 10,> 10,> 10,1.46,> 10,> 10,1.27,–,–,0.64,–,0.193
COC(=O)c1ccc2c(c1)NC(=O)/C2=C(\Nc1ccc(N(C)C(=O)CN2CCN(C)CC2)cc1)c1ccccc1 [Nintedanib],> 10,> 10,> 10,> 10,–,> 10,> 10,> 10,> 10,1.12,> 10,3.71,3.97,> 10
NC(=O)NO [Hydroxyurea],> 100,> 100,> 100,> 100,> 100,> 100,–,–,> 100,–,> 100,–,> 100,> 100
CC(C)(C)c1cc(NC(=O)Nc2ccc(-c3cn4c(n3)sc3cc(OCCN5CCOCC5)ccc34)cc2)no1 [Quizartinib],> 1,> 1,> 1,> 1,> 1,0.179,0.402,0.197,–,0.153,> 1,–,> 1,–
Cc1ccc(C(=O)N(CCCN)[C@@H](c2oc3cc(Cl)ccc3c(=O)c2Cc2ccccc2)C(C)C)cc1,> 0.1,> 0.1,> 0.1,> 0.1,> 0.1,–,> 0.1,> 0.1,> 0.1,0.00094,> 0.1,0.00166,0.00129,> 0.1
C[C@]12C=CC(=O)C=C1CC[C@@H]1[C@@H]2C(=O)C[C@@]2(C)[C@H]1CC[C@]2(O)C(=O)CO [Prednisone],> 10,> 10,> 10,> 10,> 10,> 10,> 10,> 10,> 10,> 10,> 10,–,> 10,> 10
Nc1cccc2c1CN(C1CCC(=O)NC1=O)C2=O (stereo unspecified) [Lenalidomide],1.87,> 10,> 10,> 10,> 100,> 10,–,–,> 10,–,> 10,–,> 100,> 10
Nc1nc(F)nc2c1ncn2[C@@H]1O[C@H](CO)[C@@H](O)[C@@H]1O [Fludarabine],> 10,> 10,> 10,> 10,> 10,–,2.72,3.61,1.65,3.48,> 10,2.2,–,> 10
O=C(O)CNC(=O)c1c(O)c2ccccc2n(Cc2ccccc2)c1=O [IOX-2],> 50,> 50,> 50,> 50,> 50,–,–,> 50,–,–,> 50,12.5,10.3,8.42
CCCS(=O)(=O)Nc1ccc(F)c(C(=O)c2c[nH]c3ncc(-c4ccc(Cl)cc4)cc23)c1F [Vemurafenib],> 10,> 10,–,> 10,> 10,> 10,1.46,1.74,1.84,> 10,1.17,3.92,3.73,> 10
O=P1(NCCCl)OCCCN1CCCl (stereo unspecified) [Ifosfamide],> 10,> 10,> 10,> 10,> 10,> 10,> 10,> 10,> 10,–,> 10,> 10,> 10,> 10
CC(=O)OC[C@H]1O[C@@H]([S-])[C@H](OC(C)=O)[C@@H](OC(C)=O)[C@@H]1OC(C)=O.CCP(CC)CC.[Au+] [Auranofin],0.575,0.516,–,> 2.5,0.754,0.449,0.462,0.387,0.61,0.805,0.697,0.362,0.668,0.779
CNC(=O)c1cc(Oc2ccc(NC(=O)Nc3ccc(Cl)c(C(F)(F)F)c3)c(F)c2)ccn1 [Regorafenib],> 10,> 10,3.16,> 10,> 10,1.7,2.05,2.77,1.69,1.7,–,3.57,3.58,1.34
CC[C@H](Nc1ncnc2[nH]cnc12)c1nc2cccc(F)c2c(=O)n1-c1ccccc1 [Idelalisib],0.511,> 10,> 10,> 10,> 10,> 10,> 10,> 10,1.54,1.04,–,> 10,> 10,–
